Test results taken from the NIST ThermoML archive (doi:10.1016/j.jct.2012.08.030).

Experiments:
[1] = refractive index (Na D-line) (dimensionless); xn = mol fraction of the nth substance listed; conditions: 101.3 kPa, Liquid, Standard Abbe refractometry
[2] = xn = mol fraction of the nth substance listed; conditions: 101.3 kPa, Liquid; for speed of sound: Sing-around technique in a fixed-path interferometer; for mass density: Vibrating tube method

CCCCn1cc[n+](C)c1.COS(=O)(=O)[O-] [1-butyl-3-methylimidazolium methyl sulfate] + CC(C)O
Conditions	mass density, [2] [kg/m3]	refractive index, [1]	speed of sound, [2] [m/s]
298.15 K, x1 = 0.0482	835.17	1.38886	1181.2
298.15 K, x1 = 0.0965	880.673	1.40004	1219.7
298.15 K, x1 = 0.1938	955.343	1.41819	1292.5
298.15 K, x1 = 0.2928	1013.5	1.43226	1358.2
298.15 K, x1 = 0.3902	1059.05	1.44304	1415
298.15 K, x1 = 0.496	1099.29	1.45252	1470.4
298.15 K, x1 = 0.5903	1128.61	1.45942	1514.7
298.15 K, x1 = 0.6902	1154.5	1.46547	1556.5
298.15 K, x1 = 0.7978	1177.96	1.47086	1596.4
298.15 K, x1 = 0.9531	1205.6	1.47709	1642.9
298.15 K, x1 = 1	1212.06	1.47824	1654.6
303.15 K, x1 = 0.0482	831.096	1.38696	1165.3
303.15 K, x1 = 0.0965	876.702	1.39831	1204.4
303.15 K, x1 = 0.1938	951.52	1.41666	1278.2
303.15 K, x1 = 0.2928	1009.8	1.43067	1344.3
303.15 K, x1 = 0.3902	1055.42	1.44158	1401.7
303.15 K, x1 = 0.496	1095.74	1.45108	1457.6
303.15 K, x1 = 0.5903	1125.13	1.458	1502.1
303.15 K, x1 = 0.6902	1151.05	1.46409	1544.2
303.15 K, x1 = 0.7978	1174.52	1.46948	1584.2
303.15 K, x1 = 0.9531	1202.22	1.47576	1630.7
303.15 K, x1 = 1	1208.7	1.47704	1642.2
308.15 K, x1 = 0.0482	826.964	1.38495	1148.9
308.15 K, x1 = 0.0965	872.696	1.39643	1188.9
308.15 K, x1 = 0.1938	947.68	1.41492	1263.7
308.15 K, x1 = 0.2928	1006.09	1.42902	1330.4
308.15 K, x1 = 0.3902	1051.78	1.44001	1388.3
308.15 K, x1 = 0.496	1092.2	1.44958	1444.6
308.15 K, x1 = 0.5903	1121.71	1.45655	1489.5
308.15 K, x1 = 0.6902	1147.61	1.46268	1531.7
308.15 K, x1 = 0.7978	1171.15	1.4681	1571.9
308.15 K, x1 = 0.9531	1198.85	1.47442	1618.5
308.15 K, x1 = 1	1205.35	1.47577	1630
313.15 K, x1 = 0.0482	822.774	1.38288	1132.5
313.15 K, x1 = 0.0965	868.646	1.3945	1173.3
313.15 K, x1 = 0.1938	943.827	1.41317	1249.1
313.15 K, x1 = 0.2928	1002.39	1.4274	1316.5
313.15 K, x1 = 0.3902	1048.13	1.43845	1375
313.15 K, x1 = 0.496	1088.68	1.44808	1431.8
313.15 K, x1 = 0.5903	1118.31	1.4551	1476.9
313.15 K, x1 = 0.6902	1144.23	1.46125	1519.4
313.15 K, x1 = 0.7978	1167.77	1.46674	1559.7
313.15 K, x1 = 0.9531	1195.49	1.47306	1606.4
313.15 K, x1 = 1	1202.01	1.47443	1617.9

CCCCn1cc[n+](C)c1.COS(=O)(=O)[O-] [1-butyl-3-methylimidazolium methyl sulfate] + CCCCO
Conditions	mass density, [2] [kg/m3]	refractive index, [1]	speed of sound, [2] [m/s]
298.15 K, x1 = 0.0425	843.506	1.40525	1261.4
298.15 K, x1 = 0.0922	882.293	1.41307	1285.1
298.15 K, x1 = 0.1929	948.953	1.42652	1333.2
298.15 K, x1 = 0.2926	1002.76	1.43736	1379.5
298.15 K, x1 = 0.3915	1047.2	1.44629	1424.2
298.15 K, x1 = 0.4981	1087.51	1.45433	1471
298.15 K, x1 = 0.5997	1120.12	1.4608	1513.5
298.15 K, x1 = 0.7996	1172.03	1.47095	1589.4
298.15 K, x1 = 1	1212.06	1.47824	1654.6
303.15 K, x1 = 0.0425	839.735	1.40335	1245.6
303.15 K, x1 = 0.0922	878.554	1.41133	1270
303.15 K, x1 = 0.1929	945.272	1.42489	1318.8
303.15 K, x1 = 0.2926	999.143	1.43578	1365.8
303.15 K, x1 = 0.3915	1043.64	1.44477	1411
303.15 K, x1 = 0.4981	1084.01	1.45286	1458.1
303.15 K, x1 = 0.5997	1116.66	1.45937	1500.9
303.15 K, x1 = 0.7996	1168.59	1.46959	1577.1
303.15 K, x1 = 1	1208.7	1.47704	1642.2
308.15 K, x1 = 0.0425	835.931	1.40141	1229.6
308.15 K, x1 = 0.0922	874.794	1.40946	1254.6
308.15 K, x1 = 0.1929	941.58	1.42315	1304.3
308.15 K, x1 = 0.2926	995.525	1.43415	1351.8
308.15 K, x1 = 0.3915	1040.09	1.44321	1397.5
308.15 K, x1 = 0.4981	1080.52	1.45136	1445.1
308.15 K, x1 = 0.5997	1113.21	1.45792	1488.2
308.15 K, x1 = 0.7996	1165.14	1.46821	1564.7
308.15 K, x1 = 1	1205.35	1.47577	1630
313.15 K, x1 = 0.0425	832.1	1.39946	1213.7
313.15 K, x1 = 0.0922	871.02	1.40762	1239.3
313.15 K, x1 = 0.1929	937.88	1.42144	1289.8
313.15 K, x1 = 0.2926	991.896	1.43253	1338
313.15 K, x1 = 0.3915	1036.54	1.44166	1384.2
313.15 K, x1 = 0.4981	1077.03	1.44987	1432.3
313.15 K, x1 = 0.5997	1109.78	1.45646	1475.7
313.15 K, x1 = 0.7996	1161.71	1.46682	1552.6
313.15 K, x1 = 1	1202.01	1.47443	1617.9
